Our source for the response rating values is patent US4383113A, “Agricultural sulfonamides” (E. I. Du Pont de Nemours and Company, priority 1981, dated 1983).

Assay in all cases: Test A pre-emergence
For one test, the system named is morningglory. Format: in vivo, Ipomoea spp. Further details: key: 0 = no effect, 10 = maximum effect; letter = response symbol. The method, boiled down: (§1)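 Seeds and tubers were treated preemergence in a growth medium with compound in a nonphytotoxic solvent, against untreated controls; emerged plants such as two-leaf barnyardgrass and five-leaf cotton were sprayed postemergence, against solvent-sprayed controls. After sixteen days in a greenhouse, response was rated visually from 0 to 10.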

Another test deals with cocklebur. Type of test: in vivo, Xanthium spp. Further details: key: 0 = no effect, 10 = maximum effect; letter = response symbol. The method, boiled down:
as §1

For the next test, the system named is cassia. Format: in vivo, Cassia tora. Further details: key: 0 = no effect, 10 = maximum effect; letter = response symbol. To be noted: 0.4 kg/ha. Put shortly: as §1
Another test has as its system nutsedge. Format: in vivo, Cyperus rotundus. An excerpt: The activity of these compounds was discovered in a number of greenhouse and field tests. The ratings are based on a numerical scale extending from 0=no effect, to 10=maximum effect. The accompanying descriptive symbols have the following meanings:
Seeds of crabgrass (Digitaria spp.), barnyardgrass (Echinochloa crusgalli), wild oats (Avena fatua), cassia (Cassia tora), morningglory (Ipomoea spp.), cocklebur (Xanthium spp.), sorghum, corn, soybean, rice, wheat and nutsedge tubers (Cyperus rotundus) were planted in a growth medium and treated preemergence with a nonphytotoxic solvent solution of the compounds of Table XII. Other batches of seeds and tubers for all of the foregoing weed and crop plants were planted at the same time as controls. The control plantings were untreated; i.e., neither any compound nor any solvent was applied. At the same time, cotton having five leaves (including cotyledonary ones), bush beans with the third trifoliate leaf expanding, crabgrass with two leaves, barnyardgrass with two leaves, wild oats with two leaves, cassia with three leaves (including cotyledonary ones), morningglory with four leaves (including the cotyledonary ones), cocklebur with four leaves (including the cotyledonary ones), sorghum with four leaves, corn with four leaves, soybean with two cotyledonary leaves, rice with three leaves, wheat with one leaf, and nutsedge with three-five leaves were sprayed with a nonphytotoxic solvent solution of the compounds of Table XII. Other groups of all the same weed and crop plants were sprayed with the same nonphytotoxic solvent so as to provide control plants. Preemergence and postemergence treated plants and controls were maintained in a greenhouse for sixteen days, then all treated plants were compared with their respective controls and rated visually for response to treatment.

The test system of a further test is barnyardgrass. Format: in vivo, Echinochloa crusgalli. Further details: key: 0 = no effect, 10 = maximum effect; letter = response symbol. Conditions: 0.4 kg/ha. Put shortly: as §1
A further test relates to soybean. Type of test: in vivo. More on the design: key: 0 = no effect, 10 = maximum effect; letter = response symbol. Put shortly: as §1
The next test concerns crabgrass. Format: in vivo, Digitaria spp. More on the design: key: 0 = no effect, 10 = maximum effect; letter = response symbol. Put shortly: as §1
Another test relates to wild oats. Format: in vivo, Avena fatua. More on the design: key: 0 = no effect, 10 = maximum effect; letter = response symbol. Conditions: 0.4 kg/ha. The method, boiled down: as §1
The test system of another test is corn. Type of test: in vivo. Further details: key: 0 = no effect, 10 = maximum effect; letter = response symbol. The method, boiled down:
as §1

For another test, the system named is sorghum. Format: in vivo. More on the design: key: 0 = no effect, 10 = maximum effect; letter = response symbol. Put shortly: as §1
For another test, the system named is wheat. Type of test: in vivo. More on the design: key: 0 = no effect, 10 = maximum effect; letter = response symbol. To be noted: 0.4 kg/ha. The method, boiled down: as §1
In a further test the test system is rice. Format: in vivo. Further details: key: 0 = no effect, 10 = maximum effect; letter = response symbol. Conditions: 0.4 kg/ha. Put shortly:
as §1

For `COc1nc(C)nc(NC(=O)NS(=O)(=O)c2ccccc2C(=O)Oc2ccccc2C)n1`, the response rating came to 9G with morningglory (0.4 kg/ha); 9G with cocklebur (0.4 kg/ha); 9G with cassia; 8G in the test with nutsedge (0.4 kg/ha); 9H with barnyardgrass; 9H in the test on soybean (0.4 kg/ha).
With `COC(=O)c1ccccc1S(=O)(=O)NC(=O)Nc1nc(OC)nc(OC)n1` [drawing 483], the response rating turned out to be 9G with morningglory (0.4 kg/ha); 9G with cocklebur (0.4 kg/ha); 9G with cassia; 9G in the test on nutsedge (0.4 kg/ha); 9H in the test on crabgrass (0.4 kg/ha); 9H in the test on barnyardgrass. In addition, the response rating amounted to 9G in the test on wild oats; 9G in the test with corn (0.4 kg/ha); 9G in the test with sorghum (0.4 kg/ha); 9H in the test with soybean (0.4 kg/ha); 9G with wheat.
As for `COc1nc(NC(=O)NS(=O)(=O)c2ccccc2C(=O)OCCCl)nc(OC)n1` [drawing 489], the response rating with morningglory (0.4 kg/ha) came out at 9C; with cocklebur (0.4 kg/ha) it was 9G; with crabgrass (0.4 kg/ha) it was 4G; in the test with wild oats, 8G; with corn (0.4 kg/ha), 9G; in the test on rice, 9H. The response rating with sorghum (0.4 kg/ha) is recorded as 9G; with soybean (0.4 kg/ha), 9H; in the test with wheat it was 5G.
With `COc1nc(C)nc(NC(=O)NS(=O)(=O)c2ccccc2C(=O)OCCCl)n1` [drawing 493], the response rating in the test on morningglory (0.4 kg/ha) is listed as 9C; with cocklebur (0.4 kg/ha), 9G; in the test on nutsedge (0.4 kg/ha) it was 9G; in the test with wild oats, 8H; in the test with rice, 9H; with soybean (0.4 kg/ha), 9H.
Consider `CCCCCCCCCCOC(=O)c1ccccc1S(=O)(=O)NC(=O)Nc1nc(OC)cc(OC)n1` [drawing 494], for which the response rating with morningglory (0.4 kg/ha) came out at 5G; in the test with cocklebur (0.4 kg/ha), 9G; in the test on cassia it was 5G; in the test with nutsedge (0.4 kg/ha) it was 5G; in the test with crabgrass (0.4 kg/ha), 0; in the test with wild oats it was 6G. Further, the response rating in the test with rice stood at 8G; with sorghum (0.4 kg/ha), 8G; with soybean (0.4 kg/ha) it was 3G; with wheat, 2G.
As to `CCCCCCCCCCOC(=O)c1ccccc1S(=O)(=O)NC(=O)Nc1nc(C)cc(OC)n1` [drawing 495], the response rating with morningglory (0.4 kg/ha) turned out to be 8G; in the test on cocklebur (0.4 kg/ha), 9G; with cassia, 7G; in the test with nutsedge (0.4 kg/ha), 7G; with crabgrass (0.4 kg/ha), 0; in the test on rice it was 9H. Moreover, the response rating in the test with wheat is reported as 8G.
For the compound `COc1cc(OC)nc(NC(=O)NS(=O)(=O)c2ccccc2C(=O)OC2CCCCC2)n1` [drawing 498], the response rating is 8G with morningglory (0.4 kg/ha); 8G in the test on cocklebur (0.4 kg/ha); 3G in the test with cassia; 5G in the test on nutsedge (0.4 kg/ha); 0 with crabgrass (0.4 kg/ha); 9H with barnyardgrass. Besides, the response rating with wild oats is 5G; in the test with rice, 9H; in the test with sorghum (0.4 kg/ha), 8G; in the test with wheat, 3G.
Consider `COc1nc(NC(=O)NS(=O)(=O)c2ccccc2C(=O)OC2CCCCC2)nc(OC)n1` [drawing 499], for which the response rating in the test on morningglory (0.4 kg/ha) turned out to be 9G; in the test on cocklebur (0.4 kg/ha), 9C; with cassia, 2C; with nutsedge (0.4 kg/ha), 0; in the test with crabgrass (0.4 kg/ha) it was 0; with barnyardgrass it was 9H. The response rating came out at 2G with wild oats; 5G in the test with rice; 8G with sorghum (0.4 kg/ha); 2C in the test with soybean (0.4 kg/ha); 2G in the test on wheat.
Take `Cc1cc(C)nc(NC(=O)NS(=O)(=O)c2ccccc2C(=O)O)n1` [drawing 511]: the response rating in the test on morningglory (10 kg/ha) is reported as 7G; in the test with cocklebur (10 kg/ha), 9G; in the test with nutsedge (10 kg/ha) it was 9G; in the test on crabgrass (10 kg/ha), 1C; with corn (10 kg/ha) it was 8; with sorghum (10 kg/ha) it was 5G. Moreover, the response rating in the test with soybean (10 kg/ha) came to 4G.
With `COc1nc(C)nc(NC(=O)NS(=O)(=O)c2ccccc2C(=O)OC2CCCC2)n1` [drawing 512], the response rating is 9G with morningglory (0.4 kg/ha); 9G in the test on cocklebur (0.4 kg/ha); 8G in the test with cassia; 9G in the test on nutsedge (0.4 kg/ha); 6G in the test with crabgrass (0.4 kg/ha); 9H in the test on barnyardgrass. For the same compound, the response rating in the test with wild oats was determined as 4G; in the test on rice it was 9H; with soybean (0.4 kg/ha) it was 9H; with wheat it was 4G.
Consider `COc1cc(C)nc(NC(=O)NS(=O)(=O)c2ccccc2C(=O)CCC(C)C)n1` [drawing 516], for which the response rating in the test with morningglory (0.4 kg/ha) is on record as 9G; in the test on cocklebur (0.4 kg/ha) it was 9G; in the test on cassia, 9G; with nutsedge (0.4 kg/ha) it was 9G; in the test on corn (0.4 kg/ha), 9G; with sorghum (0.4 kg/ha), 9H. The response rating in the test with soybean (0.4 kg/ha) is given as 8H; in the test with wheat, 9G.
For the compound `CCOCCOC(=O)c1ccccc1S(=O)(=O)NC(=O)Nc1nc(Cl)cc(Cl)n1` [drawing 520], the response rating was 3G in the test with morningglory (0.4 kg/ha); 0 in the test with cassia; 2G in the test on crabgrass (0.4 kg/ha); 0 in the test on wild oats; 1C with corn (0.4 kg/ha); 8H in the test with rice. In addition, the response rating in the test on sorghum (0.4 kg/ha) was 8G; in the test on soybean (0.4 kg/ha), 0; in the test with wheat it was 0.
Take `C=CCCC(C)OC(=O)c1ccccc1S(=O)(=O)NC(=O)Nc1nc(C)nc(OC)n1` (stereo not drawn) [drawing 522]: the response rating turned out to be 9G with morningglory (0.4 kg/ha); 9G in the test with cocklebur (0.4 kg/ha); 9G in the test on cassia; 9G in the test on nutsedge (0.4 kg/ha); 9H with sorghum (0.4 kg/ha); 9H in the test on soybean (0.4 kg/ha). This compound also returned a response rating in the test on wheat of 7G.
As to `COc1nc(C)nc(NC(=O)NS(=O)(=O)c2ccccc2C(=O)OC2CCCCCCC2)n1` [drawing 523], the response rating in the test with cocklebur (0.4 kg/ha) is given as 9G; in the test on cassia it was 8G; in the test on nutsedge (0.4 kg/ha), 7G; with crabgrass (0.4 kg/ha), 5G; in the test with barnyardgrass, 9H; in the test on wild oats, 7G. In addition, the response rating is 9H in the test with rice, 9H in the test on soybean (0.4 kg/ha) and 5G in the test with wheat.
With `COc1nc(C)nc(NC(=O)NS(=O)(=O)c2ccccc2C(=O)OC(C)CCl)n1` (stereo not drawn) [drawing 526], the response rating with morningglory (0.4 kg/ha) is on record as 9G; with cocklebur (0.4 kg/ha) it was 9G; with cassia, 8G; in the test on corn (0.4 kg/ha), 9G; with rice it was 9H; in the test with sorghum (0.4 kg/ha) it was 9H. Also, the response rating in the test with soybean (0.4 kg/ha) is reported as 9H; in the test on wheat, 4G.
As for `COc1nc(C)nc(NC(=O)NS(=O)(=O)c2ccccc2C(=O)OCc2ccc(Cl)cc2)n1` [drawing 527], the response rating stood at 9G with morningglory (0.4 kg/ha); 8G in the test with cocklebur (0.4 kg/ha); 8G with cassia; 9G with nutsedge (0.4 kg/ha); 4G in the test with wild oats; 9H in the test on rice. Moreover, the response rating in the test with soybean (0.4 kg/ha) was found to be 7H; with wheat, 0.
In the case of `CCCCCCCCCCCCNC(=O)c1ccccc1S(=O)(=O)NC(=O)Nc1nc(C)nc(OC)n1` [drawing 534], the response rating in the test on morningglory (0.4 kg/ha) was found to be 9G; in the test on cocklebur (0.4 kg/ha), 8G; with cassia it was 8G; in the test on barnyardgrass, 9H; with wild oats it was 6G; in the test with corn (0.4 kg/ha) it was 8G. Further, the response rating came to 9H in the test with rice and 6G in the test on wheat.
